71 compounds from PubChem BioAssay AID179 (DTP/NCI, 2004) can be followed below.

Several values for one entry are separate records, joined by “and”; a condition that tells them apart may be missing. Equal entries are not always repeated. Activity calls are given as the source filed them.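 How the source made its calls: active means compounds giving half or more protection of infected cells from virus-caused growth loss, again on retest; inactive means the rest.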 Where a SMILES comes first, the peptide text is derived from it. [ ]: non-standard residue; d: D form. pGlu = O=C1CC[CH](C(=O)O)N1; Thz = O=C(O)[CH]1CSCN1

The assay relates to CEM cells HIV-1 protection, formazan growth assay. Nature of the assay: NCI AIDS Antiviral Assay. To be noted: for IC50: measured here: growth of uninfected CEM cells. Summed up:
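Human CEM cells, uninfected and HIV-1-infected, exposed to five drug concentrations; growth measured by soluble formazan assay and scored as percent protection from infection, with protecting compounds retested.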

What is called EC50 is the concentration that produces a half-maximal response. As a reminder, the IC50 is the point on the concentration scale where inhibition reaches its midpoint. Consider `CCCCCCCCCCCC(=O)c1c(O)cc(C)oc1=O`, for which the EC50 was above 100 µM and the IC50 was found to be 5.37 µM.
On the same counts, the results for `Nc1ncnc2c1ncn2C1CCC(COS(N)(=O)=O)C1` (configuration not stated) are above 200 µM and above 200 µM.
On the same counts, the results for `CCCCN1C(=O)C(=O)N(c2ccccc2C(F)(F)F)C1=O` are above 200 µM and 158 µM.
With `COC1OC(CO)C(O)C(OC(C)=O)C1NC(=O)N(CCCl)N=O` (configuration not stated), the EC50 is above 676 µM and the IC50 came to 417 µM.
For `COC(=O)c1ccc(NCc2cc(O)ccc2O)cc1O`, in that order: above 200 µM and 10.5 µM.
As for `Cc1cc(C)c2c(c1)CC2NC(=O)Cc1ccccc1` (configuration not stated), the EC50 is above 26.9 µM and the IC50 was above 26.9 µM.
In the case of `CCCCCCCCCn1ccnc1NCCCCCCNc1nccn1CCCCCCCCC`, the EC50 is above 7.24 µM and the IC50 was determined as 3.63 µM.
On the same counts, the results for `NC(=O)CCS(=O)(=O)O` are above 200 µM and above 200 µM.
Turning to `CC12CC3(O)OC(O1)C1(COC(=O)c4ccccc4)C3C[C@@]21OC1OC(COC(=O)c2cc(O)c(O)c(O)c2)C(O)C(O)C1O` (some centres not stated), the result was inactive.
Consider `CC(=O)[O-].CC(=O)[O-].O=C(N/N=C/c1cc(Cl)cc(Cl)c1[OH2+])c1ccncc1.[Co+2]`, for which the result was inactive.
On to `CCc1ccc([OH2+])c(C(=O)[O-])c1.CCc1ccc([OH2+])c(C(=O)[O-])c1.CCc1ccc([OH2+])c(C(=O)[O-])c1.CCc1ccc([OH2+])c(C(=O)[O-])c1.[Cu+2].[Cu+2]`, for which the EC50 was above 200 µM and the IC50 was 23.4 µM.
Turning to `CSC1=C(c2ccc(Cl)cc2)SC(N2CCCCC2)N1c1ccc([N+](=O)[O-])cc1` (configuration not stated), the EC50 was above 200 µM and the IC50 amounted to 97.7 µM.
`CC1CC/C(=C\c2ccc(Cl)cc2)C2=C1C(c1ccc(Cl)cc1)N1C(=O)CSC1=N2` (configuration not stated): the outcome was inactive.
For `CCc1cc(Cc2cc(Cl)c(NC(=O)C(=O)C3NC(=O)NC3=O)c(CC)c2)cc(Cl)c1NC(=O)C(=O)C1NC(=O)NC1=O` (configuration not stated), the EC50 was above 151 µM and the IC50 was found to be 24.5 µM.
As to `CC(=O)Nc1ccc(/C=C/C(=O)c2ccccc2)cc1`, the EC50 is above 38 µM and the IC50 is above 38 µM.
`Nc1ccc(S(=O)(=O)Nc2nc3ccccc3nc2Nc2ccc(S(N)(=O)=O)cc2)cc1`: the EC50 is above 200 µM and the concentration for half-maximal inhibition (IC50) was 20.4 µM.
With `O=C(Cc1ccccc1)NN1C(=O)C(Cl)C1c1cc(Br)cc(Br)c1O` (configuration not stated), the EC50 is above 20.4 µM and the IC50 amounted to 11.5 µM.
For `CN(C)C(=S)N/N=C\C(=N/NC(=S)N(C)C)c1ccccc1`, in that order: above 200 µM and 12.9 µM.
On to `Cc1cc2nnc(-c3ccc(C#N)cc3)n2c2nnnn12`, for which the EC50 was above 200 µM.
Take `CC(=O)Oc1ccc(OC(Oc2ccccc2)c2ccccc2)cc1` (configuration not stated): the EC50 is above 89.1 µM and the IC50 is 60.3 µM.
For the compound `Nc1nc2n(n1)C(=O)C(=O)N2`, the EC50 is above 115 µM and the IC50 is above 115 µM.
As for `CC(=O)ONC(C(=O)C(C)(C)C)C(=O)C(C)(C)C`, the EC50 was above 200 µM and the IC50 is above 200 µM.
Regarding `O=C1CCSC(=O)N1c1ccccc1`, the EC50 was above 200 µM and the concentration for half-maximal inhibition (IC50) was above 200 µM.
Consider `CCCCCCCCCCC[N+]1(Cc2ccccc2)CC2CCN(Cc3ccccc3)CC2C1` (configuration not stated), for which the EC50 was above 2 µM and the half-maximal inhibitory concentration (IC50) amounted to 0.234 µM.
For `CC(=O)OCC(OC(C)=O)C(OC(C)=O)C(OC(C)=O)C(/C=N\Nc1nc2ccccc2c(=O)[nH]1)OC(C)=O` (configuration not stated), in that order: above 200 µM and above 200 µM.
On to `CC1=C2C(=O)C(C)(C)C=C2C(=O)[C@](C)(O)C12CC2`, for which the result was inactive.
Regarding `Cc1ccc(S(=O)(=O)c2ccsc2NC(=O)c2ccccc2)cc1`, the EC50 was above 100 µM and the IC50 was above 100 µM.
With `CC1CCC2N(C1)CC1C3(O)CC45OC6(O)C(O)CCC4(C)C6CCC5C3(O)CC(O)C1(O)C2(C)O` (configuration not stated), the EC50 is above 490 µM and the IC50 was above 490 µM.
As to `N=C(N)c1ccc(OCCCOc2ccc(C(=N)N)cc2)cc1`, the EC50 was above 200 µM and the IC50 is 17 µM.
For `COc1cc(-c2ccc(N=Nc3cc4cc(S(=O)(=O)O)ccc4cc3O)c(OC)c2)ccc1N=Nc1cc2cc(S(=O)(=O)O)ccc2cc1O`, in that order: 17.4 µM and 120 µM.
For the compound `N#Cc1cccc(C2C(=O)c3ccc(C(=O)c4ccc5c(c4)C(=O)N(c4ccc(Oc6ccc(N7C(=O)c8ccc(C(=O)c9ccc%10c(c9)C(=O)N(c9cccc(C#N)c9)C%10=O)cc8C7=O)cc6)cc4)C5=O)cc3C2=O)c1` (configuration not stated), the EC50 is above 3.47 µM and the half-maximal inhibitory concentration (IC50) was above 3.47 µM.
As to `O=C(CCCN1CCC2(CC1)C(=O)NCN2c1ccccc1)c1ccc(F)cc1`, the EC50 was above 200 µM and the 50% inhibitory concentration (IC50) stood at 13.5 µM.
As for `CC1=Nc2cc(N)nn2C(=O)C1`, the EC50 is above 200 µM and the IC50 is above 200 µM.
Consider `COC(=O)[C@]1(C)CCC[C@]2(C)c3ccc(C(C)C)cc3C(=O)C[C@@H]12`, for which the EC50 was above 200 µM and the IC50 was determined as 31.6 µM.
For `CCOC(=O)C1=C(C)NC2=C(C(=O)CC(C)(C)C2)C1CCSC` (configuration not stated), the EC50 was above 200 µM and the IC50 is above 200 µM.
In the case of `CCOC(=O)[C@@]12C(=O)[C@@H](C)CC[C@@H]1[C@@H](C)C[C@H]2C=C(C)C`, the EC50 is above 200 µM and the IC50 is 110 µM.
Turning to `CNC(=O)CCCN(C)C(=O)CCCCC(=O)N(C)C`, the EC50 was above 200 µM and the half-inhibitory concentration (IC50) was above 200 µM.
For the compound `COC(=O)CC1C=CC(C)(OC)OO1` (configuration not stated), the EC50 was above 200 µM and the IC50 was 93.3 µM.
For `Cc1noc(NS(=O)(=O)c2ccc(N=c3c4ccccc4n(-c4ccccc4)c4ccccc34)cc2)c1C`, the result was inactive.
Still for that read-out and setting: with `COc1cc2c(cc1OC)C1c3ccccc3C(C#N)(C2)N(C(=O)c2ccccc2)C1O` (configuration not stated) the entry was “inactive”.
As to `O=C1CCC(C(=O)N2CSCC2C(=O)O)N1` (configuration not stated) ([pGlu]-[Thz]-OH; configuration not given here), the EC50 was above 200 µM and the IC50 is above 200 µM.
Turning to `COc1cc(/C=C/c2nc(NC(=S)Nc3ccccc3)nnc2C)cc(OC)c1OC`, the EC50 was above 200 µM and the IC50 came to 13.8 µM.
For the compound `CC(C)/C(Cl)=N/OC(=O)Nc1ccc(F)c(Cl)c1`, the EC50 is above 20 µM and the IC50 stood at 3.31 µM.
Consider `COc1ccc(COC(=O)NCC(=O)NC(C)C(=O)NC(Cc2ccccc2)C(=O)OCc2ccccc2)cc1` (configuration not stated), for which the EC50 was above 200 µM; the IC50 was 45.7 µM and 12.9 µM.
For the compound `CC1CN2CC(C)OB(O1)OC(C)C2` (configuration not stated), the outcome was inactive.
In the case of `O=[N+]([O-])c1cccc2nc3ccccc3c(NCCC[N+]3([O-])CCCCC3)c12`, the EC50 is above 0.2 µM and the IC50 came to 0.126 µM.
`C/C=C(\C(=O)OC)C1CC2OC(=O)C1(C=O)C13CCNC21N(C)c1ccccc13` (configuration not stated): the EC50 was above 126 µM and the IC50 stood at 117 µM.
As to `CC1Cc2c(nc3n(c2=O)CCCCC3)O1` (configuration not stated), the EC50 is above 407 µM and the IC50 was above 407 µM.
For `COC(=O)C1(NC(=O)C(CC(=O)OCc2ccccc2)NC(=O)OCc2ccccc2)CCCCCC1` (configuration not stated), the EC50 is above 200 µM and the half-maximal inhibitory concentration (IC50) turned out to be 107 µM.
As to `CC(=O)Nc1ccc(/C=c2\sc3nnc(CCC(=O)Nc4ccccc4Cl)n3c2=O)cc1`, the EC50 was above 28.8 µM and the IC50 is above 28.8 µM.
Consider `Cc1cn(C2CC3C(COC(CC[Se]c4ccccc4)N3O)O2)c(=O)[nH]c1=O` (configuration not stated), for which the EC50 is 24 µM and the IC50 was determined as 158 µM.
`OCC(O)C(O)C(O)c1nn(-c2ccc(Cl)cc2)c2nc3cc(Cl)c(Cl)cc3nc12` (configuration not stated): the outcome was inactive.
For the compound `CSc1nc(SC)c2nc(Nc3ccccc3)sc2n1`, the EC50 was above 200 µM and the IC50 was determined as 6.17 µM.
As for `CCOP(=O)(OCC)/C(C#N)=C/c1ccc(Br)cc1`, the EC50 was above 275 µM and the IC50 was 162 µM.
On the same counts, the results for `COC1(OC)CC(CO)(COc2cc(Cl)nc(N)n2)C1` are above 200 µM and above 200 µM.
For `O=C1C(c2[nH]c3ccc(S(=O)(=O)O)cc3c2O)=Nc2ccc(S(=O)(=O)O)cc21`, in that order: above 200 µM and above 200 µM.
On the same counts, the results for `C[N+]1(C)CC=C(N2CCOCC2)CC1` are above 200 µM and above 200 µM.
Take `Cc1cn(C2CC([Se]c3ccccc3)C(CO)O2)c(=O)[nH]c1=O` (configuration not stated): the EC50 was above 200 µM and the concentration for half-maximal inhibition (IC50) was determined as 95.5 µM.
For `COc1ccc(C2c3cc(O)c(OC)cc3Oc3cc(OC)c(O)cc32)cc1`, in that order: above 200 µM and 8.51 µM.
Turning to `Clc1cc2c(c3ncccc13)OCN(CCc1ccccc1)C2`, the EC50 is above 200 µM and the IC50 stood at 0.955 µM.
On the same counts, the results for `Cn1cnc([N+](=O)[O-])c1Sc1nc2ccccc2[nH]1` are above 19.1 µM and 6.92 µM.
Turning to `O=C(NC1C/C(=N/O)c2c(Br)sc(Br)c21)C(F)(F)F` (configuration not stated), the EC50 was above 200 µM and the half-inhibitory concentration (IC50) came to 53.7 µM.
Consider `CCC1(COC(NC(=O)c2ccccc2)(C(F)(F)F)C(F)(F)F)COC1`, for which the EC50 was above 200 µM and the IC50 was determined as 115 µM.
With `Nc1ccc2c(O)cc(=O)[nH]c2n1`, the EC50 is above 200 µM and the IC50 was above 200 µM.
Regarding `CCOP(=O)(OCC)OC(C#N)c1ccc(-c2ccccc2)cc1` (configuration not stated), the EC50 was above 89.1 µM and the IC50 worked out at 45.7 µM.
For `CCN(C)N=Nc1ccc(C(N)=O)cc1`, in that order: above 1200 µM and 617 µM.
As for `CCN(CC)Cc1nc(C2CCC([N+](=O)[O-])O2)no1` (configuration not stated), the EC50 was above 200 µM and the IC50 is 72.4 µM.
For the compound `NC(=S)N/N=C/c1cc(=O)c2cc(Cl)ccc2o1`, the EC50 is above 66.1 µM and the IC50 is above 66.1 µM.
On to `CN1C(=O)C2CCC1n1c(=O)n(-c3ccccc3)c(=O)n12` (configuration not stated), for which the outcome was inactive.
In the case of `NC(=O)c1ccc[c]([Sb](=[O])([OH])[OH])c1`, the EC50 is 10.5 µM and the IC50 was 398 µM.
On the same counts, the results for `COc1ccc(C(=O)Sc2ccccc2C(=O)Nc2ccc(S(=O)(=O)NC(C)=O)cc2)cc1` are 22.4 µM and above 100 µM.
